Read-outs that look alike come from different tables or passages of the source.
How the values were obtained:
Format in all cases: biochemical
[1] = target: Asp-2 (Homo sapiens, UniProt P56817); test: Asp-2 Inhibitory Assay (FAM-[SEVNLDAEFK]-TAMRA substrate cleavage, fluorescence); details: Assay (I)
Method: (I) Asp-2 Inhibitory Assay
(§1) For each compound being assayed, in a 384 well plate, is added:
(§2) a) 1 μl of a DMSO solution of the test compound (IC50 curve uses ten 1 in 2 serial dilutions from 500 μM).
b) 10 μl of substrate (FAM-[SEVNLDAEFK]-TAMRA) solution in buffer. This is prepared by diluting 2 ml of a 2 mM DMSO solution of the substrate into 400 ml of buffer (100 mM Sodium acetate pH=4.5, 1 l Milli-Q water, 0.06% Triton X-100 (0.5 ml/l), pH adjusted to 4.5 using glacial acetic acid). Aminomethyl fluorescein (FAM) and tetramethyl rhodamine (TAMRA) are fluorescent molecules which co-operate to emit fluorescence at 535 nm upon cleavage of the SEVNLDAEFK peptide. c) 10 μl enzyme solution. This is prepared by diluting 16 ml of a 500 nM enzyme solution into 384 ml of buffer (prepared as above).
(§3) Blank wells (enzyme solution replaced by buffer) are included as controls on each plate. Wells are incubated for 1 h at room temperature and fluorescence read using a Tecan Ultra Fluorimeter/Spectrophotometer (485 nm excitation, 535 nm emission).

[2] = target: T1, Asp-1 (Homo sapiens, UniProt Q9Y5Z0); test: Asp-1 Inhibitory Assay (FAM-[SEVNLDAEFK]-TAMRA substrate cleavage, fluorescence); details: Assay (II), pH 4.5, 2 h room temperature
T1 sequence (Q9Y5Z0 63-518): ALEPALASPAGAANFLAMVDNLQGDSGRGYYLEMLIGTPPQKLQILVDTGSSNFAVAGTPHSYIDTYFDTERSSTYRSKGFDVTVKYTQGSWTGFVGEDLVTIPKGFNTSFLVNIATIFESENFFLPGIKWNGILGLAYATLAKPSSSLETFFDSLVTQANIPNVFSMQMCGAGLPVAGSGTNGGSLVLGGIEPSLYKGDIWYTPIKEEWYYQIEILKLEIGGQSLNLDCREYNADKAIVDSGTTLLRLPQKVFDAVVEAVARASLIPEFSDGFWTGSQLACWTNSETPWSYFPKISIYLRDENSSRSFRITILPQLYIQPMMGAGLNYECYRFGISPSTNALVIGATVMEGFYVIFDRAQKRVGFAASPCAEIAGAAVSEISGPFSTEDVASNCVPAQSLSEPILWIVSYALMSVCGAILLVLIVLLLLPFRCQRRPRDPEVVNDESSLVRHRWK
Method: (II) Asp-1 Inhibitory Assay
as §1, §2
b) 10 μl of substrate (FAM-[SEVNLDAEFK]-TAMRA) solution in buffer. This is prepared by diluting 2 ml of a 2 mM DMSO solution of the substrate into 400 ml of buffer (100 mM Sodium acetate pH=4.5, 1 l Milli-Q water, 0.06% Triton X-100 (0.5 ml/l), pH adjusted to 4.5 using glacial acetic acid). c) 10 μl enzyme solution. This is prepared by diluting 4 ml of a 6.3 μM enzyme solution into 496 ml of buffer (100 mM Sodium acetate pH=4.5, 40 mM sodium chloride, 900 ml Milli-Q water, 100 ml glycerol, 0.2% CHAPS (2 g/l), pH adjusted to 4.5 using glacial acetic acid).
Blank wells (enzyme solution replaced by buffer) are included as controls on each plate. Wells are incubated for 2 h at room temperature and fluorescence read using a Tecan Ultra Fluorimeter/Spectrophotometer (485 nm excitation, 535 nm emission).

[3] = target: Cathepsin D (Homo sapiens, UniProt P07339); test: Cathepsin D Inhibitory Assay (FAM-SEVNLDAEFK-TAMRA substrate cleavage, fluorescence); details: Assay (III)
Sequence of Cathepsin D (P07339 65-412, species assumed): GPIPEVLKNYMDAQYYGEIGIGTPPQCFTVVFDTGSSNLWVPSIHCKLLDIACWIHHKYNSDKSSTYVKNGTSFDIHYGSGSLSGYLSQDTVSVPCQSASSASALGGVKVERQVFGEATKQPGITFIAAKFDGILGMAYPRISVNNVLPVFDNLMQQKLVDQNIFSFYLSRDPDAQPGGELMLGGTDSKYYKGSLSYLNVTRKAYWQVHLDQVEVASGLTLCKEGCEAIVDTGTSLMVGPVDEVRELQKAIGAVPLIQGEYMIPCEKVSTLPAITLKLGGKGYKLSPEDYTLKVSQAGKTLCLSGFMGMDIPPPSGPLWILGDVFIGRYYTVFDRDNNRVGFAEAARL
Method: (II) Cathepsin D Inhibitory Assay
as §1, §2
b) 10 μl of substrate (FAM-SEVNLDAEFK-TAMRA) solution in buffer. This is prepared by diluting 2 ml of a 2 mM DMSO solution of the substrate into 400 ml of buffer (100 mM Sodium acetate pH=4.5, 1 l Milli-Q water, 0.06% Triton X-100 (0.5 ml/l), pH adjusted to 4.5 using glacial acetic acid). c) 10 μl enzyme solution. This is prepared by diluting 1.6 ml of a 200 unit/ml (in 10 mM HCl) enzyme solution into 398.4 ml of buffer (prepared as above).
as §3

[4] = pH 4.5, 1 h room temperature, read-out: Asp-2 IC50
[5] = pH 4.5, 1 h room temperature, read-out: Cat. D IC50
[6] = range given for a group of Examples, read-out: range of inhibition (Asp-2)
[7] = range given for a group of Examples, read-out: range of inhibition (CatD)

Sequence of Asp-2 (P56817 46-501): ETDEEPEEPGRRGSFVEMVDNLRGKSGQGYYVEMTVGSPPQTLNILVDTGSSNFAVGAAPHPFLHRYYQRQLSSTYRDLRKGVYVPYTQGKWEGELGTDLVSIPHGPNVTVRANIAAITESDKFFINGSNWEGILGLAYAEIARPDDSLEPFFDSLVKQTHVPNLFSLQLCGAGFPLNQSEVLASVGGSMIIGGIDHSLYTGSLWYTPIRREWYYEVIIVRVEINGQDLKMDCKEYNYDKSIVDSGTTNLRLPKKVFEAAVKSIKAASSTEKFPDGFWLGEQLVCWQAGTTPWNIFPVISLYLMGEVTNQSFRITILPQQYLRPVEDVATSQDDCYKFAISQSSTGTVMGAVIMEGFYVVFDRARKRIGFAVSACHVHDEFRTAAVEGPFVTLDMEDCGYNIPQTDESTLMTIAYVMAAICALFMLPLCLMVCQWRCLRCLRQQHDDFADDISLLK

Row | SMILES | IC50 [1, 4] [nM] | IC50 [2] [nM] | IC50 [3, 5] [nM] | IC50 [1, 6] [nM] | IC50 [3, 7] [nM]
1 | C=CCOc1cc(C(=O)N[C@@H](Cc2ccccc2)[C@@H](O)C[C@@H](C)C(=O)NCCC(C)(C)C)cc(N2CCCC2=O)c1 [Example E3, 3-Allyloxy-N-[(1S,2S,4R)-1-benzyl-4-(3,3-dimethylbutylcarbamoyl)-2-hydroxypentyl]-5-(2-oxopyrrolidin-1-yl)-benzamide] | 60 | 420 | 2900 |  | 
2 | C[C@H](C[C@H](O)[C@H](Cc1ccccc1)NC(=O)c1cc(N2CCCC2=O)cc(N2CCCC2=O)c1)C(=O)NC1CC2CCC1C2 (stereo partly drawn) [Example E8, N-[(1S,2S,4R)-1-Benzyl-4-(bicyclo[2.2.1]hept-2-ylcarbamoyl)-2-hydroxypentyl]-3,5-bis-(2-oxopyrrolidin-1-yl)benzamide] |  |  |  | 2 to 30 | 340 to 3000
3 | C[C@H](C[C@H](O)[C@H](Cc1ccccc1)NC(=O)c1cc(N2CCCC2=O)cc(N2CCCC2=O)c1F)C(=O)NC1CCC(C(C)(C)C)CC1 (stereo partly drawn) [Example E32, N-[(1S,2S,4R)-1-Benzyl-4-(4-tert-butylcyclohexylcarbamoyl)-2-hydroxypentyl]-2-fluoro-3,5-bis-(2-oxopyrrolidin-1-yl)benzamide] |  |  |  | 2 to 30 | 340 to 3000
4 | C[C@H](C[C@H](O)[C@H](Cc1ccccc1)NC(=O)c1cccc(N2CCCC2=O)c1F)C(=O)NC1CC2CCC1C2 (stereo partly drawn) [Example E21, N-[(1S,2S,4R)-1-Benzyl-4-(bicyclo[2.2.1]hept-2-ylcarbamoyl)-2-hydroxypentyl]-2-fluoro-3-(2-oxopyrrolidin-1-yl)-benzamide] |  |  |  | 2 to 30 | 340 to 3000
5 | CCCOc1cc(C(=O)N[C@@H](Cc2ccccc2)[C@@H](O)C[C@@H](C)C(=O)NCCC(C)(C)C)cc(N2CCCC2=O)c1 [Example E4, N-[(1S,2S,4R)-1-Benzyl-4-(3,3-dimethylbutylcarbamoyl)-2-hydroxypentyl]-3-(2-oxopyrrolidin-1-yl)-5-propoxybenzamide] | 35 | 150 | 1800 |  | 
6 | CC(C)Oc1cc(C(=O)N[C@@H](Cc2ccccc2)[C@@H](O)C[C@@H](C)C(=O)NC2CCC2)cc(N2CCCC2=O)c1 [Example E26, N-[(1S,2S,4R)-1-Benzyl-4-(cyclobutylcarbamoyl)-2-hydroxypentyl]-3-isopropoxy-5-(2-oxopyrrolidin-1-yl)benzamide] |  |  |  | 2 to 30 | 340 to 3000
7 | C[C@H](C[C@H](O)[C@H](Cc1ccccc1)NC(=O)c1cc(N2CCCC2=O)cc(N2CCCC2=O)c1F)C(=O)NC1CC2CCC1C2 (stereo partly drawn) [Example E22, N-[(1S,2S,4R)-1-Benzyl-4-(bicyclo[2.2.1]hept-2-ylcarbamoyl)-2-hydroxypentyl]-2-fluoro-3,5-bis-(2-oxopyrrolidin-1-yl)benzamide] |  |  |  | 2 to 30 | 340 to 3000
8 | C[C@H](C[C@H](O)[C@H](Cc1ccccc1)NC(=O)c1ccc(F)c(N2CCCC2=O)c1)C(=O)NCCC(C)(C)C (stereo in doubt) [Example E1, N-[(1S,2S,4R)-1-Benzyl-4-(3,3-dimethylbutylcarbamoyl)-2-hydroxypentyl]-4-fluoro-3-(2-oxopyrrolidin-1-yl)-benzamide] | 600 | 6000 | 13000 |  | 
9 | CC(=O)Nc1cc(C(=O)N[C@@H](Cc2ccccc2)[C@@H](O)C[C@@H](C)C(=O)NC2CC3CCC2C3)cc(N2CCCC2=O)c1 (stereo partly drawn) [Example E10, 3-Acetylamino-N-[(1S,2S,4R)-1-benzyl-4-(bicyclo[2.2.1]hept-2-ylcarbamoyl)-2-hydroxypentyl]-5-(2-oxopyrrolidin-1-yl)benzamide] |  |  |  | 2 to 30 | 340 to 3000
10 | CC(C)Oc1cc(C(=O)N[C@@H](Cc2ccccc2)[C@@H](O)C[C@@H](C)C(=O)NC2CC3CCC2C3)cc(N2CCCC2=O)c1 (stereo partly drawn) [Example E14, N-[(1S,2S,4R)-1-Benzyl-4-(bicyclo[2.2.1]hept-2-ylcarbamoyl)-2-hydroxypentyl]-3-isopropoxy-5-(2-oxopyrrolidin-1-yl)benzamide] |  |  |  | 2 to 30 | 340 to 3000

Source: patent publication US6992103B2, “Benzamide derivatives, processes for their preparation, and their pharmaceutical use” (SmithKline Beecham P.L.C., priority 2001, dated 2006)
